The results in this text go back to patent US8143393B2, “Substituted 4-amino-pyrrolotriazine derivatives useful for treating hyper-proliferative disorders and diseases associated with angiogenesis” (Bayer HealthCare LLC, priority 2005, dated 2012).

For the experiment, the target named is T1, FGFR-1 (Homo sapiens, UniProt P11362).
T1 construct: GST; made in house
Description: FGFR-1 TR-FRET biochemical assay. How it is done: FGFR-1TR-FRET Biochemical Assay
The FGFR-1 Assay was performed on half well 96-well opaque plates (Costar 3915) in a LANCE format. LANCE is a homogenous time resolved fluormetry based application available through Perkin Elmer. For this assay, 50 uL reactions were set up using: 0.6 uM ATP (Sigma), 25 nM poly GT-biotin (CIS BIO International), 2 nM Eu-labelled phospho-Tyr Ab (PY20 PerkinElmer), 10 nM Streptavidin-APC (Perkin Elmer), 5 nM FGFR1-GST (generated by DRT, Bayer Healthcare), 1% DMSO, 50 mM HEPES pH 7.5, 10 mM MgCl2, 0.1 mM EDTA, 0.015% Brij, 0.1 mg/ml BSA, 0.1% B-mercaptoethanol. All reactions were initiated with the addition of enzyme and were left to incubate for one hour at room temperature. Time-resolved fluorescence was then read on a Perkin Elmer VictorV Multilabel counter. The reading protocol uses an excitation wavelength at 340 nm and emission reads at both 615 and 665 nm. Signal was calculated as a ratio: (Flourescence at 665 nm/Flourescence at 615 nM)*10000 for each well. The background control used for this assay is the signal produced with all assay components excluding ATP. For IC50 generation, compounds were added prior to the enzyme initiation. A 50-fold stock plate was made with compounds serially diluted 1:5 in a 50% DMSO/50% dH2O solution. A 1 μL addition of the stock to the assay wells gave final compound concentrations ranging from 10 μM-0.128 nM in 1% DMSO. The data were expressed as percent inhibition: % inhibition=100−((Signal with inhibitor−background)/(Signal without inhibitor−background))*100.

Setting [1] is: 0.6 uM ATP, 5 nM FGFR1-GST, bounds given in nM.
Where [2] appears, read: upper bound of the bin 'greater than 100 nM but less than 1 μM' (lower bound in E1).

As a reminder, the IC50 is the midpoint of a concentration-inhibition curve. Read a high IC50 as lower potency.

T1 sequence (P11362 22-822): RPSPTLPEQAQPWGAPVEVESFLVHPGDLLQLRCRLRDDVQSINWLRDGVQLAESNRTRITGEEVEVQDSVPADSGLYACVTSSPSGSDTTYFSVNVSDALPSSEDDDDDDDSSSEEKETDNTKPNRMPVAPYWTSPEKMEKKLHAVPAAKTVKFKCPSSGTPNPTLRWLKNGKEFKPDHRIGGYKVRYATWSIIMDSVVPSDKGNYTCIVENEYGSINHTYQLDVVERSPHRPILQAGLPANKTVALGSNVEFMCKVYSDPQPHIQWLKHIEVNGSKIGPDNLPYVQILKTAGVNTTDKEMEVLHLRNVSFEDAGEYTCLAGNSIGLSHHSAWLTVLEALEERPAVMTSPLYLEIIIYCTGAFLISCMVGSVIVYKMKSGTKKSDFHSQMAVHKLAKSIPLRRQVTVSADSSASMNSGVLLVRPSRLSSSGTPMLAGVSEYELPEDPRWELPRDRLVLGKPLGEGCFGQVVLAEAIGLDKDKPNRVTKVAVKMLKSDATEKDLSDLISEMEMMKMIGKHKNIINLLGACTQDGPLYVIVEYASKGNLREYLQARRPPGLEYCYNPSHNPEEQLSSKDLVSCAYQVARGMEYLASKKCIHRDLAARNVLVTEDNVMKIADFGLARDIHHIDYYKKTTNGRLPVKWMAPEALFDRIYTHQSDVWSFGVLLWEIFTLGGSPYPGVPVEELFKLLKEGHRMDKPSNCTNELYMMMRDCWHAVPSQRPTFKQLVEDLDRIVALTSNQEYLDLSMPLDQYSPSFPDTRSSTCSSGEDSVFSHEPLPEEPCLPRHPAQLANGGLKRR

In turn, `Nc1ncnn2c(CN3CCNC(=O)C3)cc(-c3ccc(NC(=O)Nc4cc(C(F)(F)F)ccn4)cc3)c12` [Example 41, N-(4-{4-amino-7-[(3-oxopiperazin-1-yl)methyl]pyrrolo[2,1-f][1,2,4]triazin-5-yl}phenyl)-N′-[4-(trifluoromethyl)pyridin-2-yl]urea] yielded an IC50 under setting [1] below 10 nM.

As for `Nc1ncnn2c(CN3CCOCC3)cc(-c3cc(F)c(NC(=O)Nc4cccc(C(F)(F)F)c4F)cc3F)c12` [Example 42, N-{4-[4-amino-7-(morpholin-4-ylmethyl)pyrrolo[2,1-f][1,2,4]triazin-5-yl]-2,5-difluorophenyl}-N′-[2-fluoro-3-(trifluoromethyl)phenyl]urea], the IC50 under setting [1] lay in the range of 10 to 100 nM.

As for `CC(C)(C)c1ccccc1NC(=O)Nc1ccc(-c2cc(CN3CCOCC3)n3ncnc(N)c23)cc1` [Example 49, N-{4-[4-amino-7-(morpholin-4-ylmethyl)pyrrolo[2,1-f][1,2,4]triazin-5-yl]phenyl}-N′-(2-tert-butylphenyl)urea], the half-inhibitory concentration (IC50) under setting [1] is above 100 nM and the concentration for half-maximal inhibition (IC50) under setting [2] was below 1000 nM.

The compound `CCc1cccc(NC(=O)Nc2ccc(-c3cc(CN4CCOCC4)n4ncnc(N)c34)cc2)c1` [Example 50, N-{4-[4-amino-7-(morpholin-4-ylmethyl)pyrrolo[2,1-f][1,2,4]triazin-5-yl]phenyl}-N′-(3-ethylphenyl)urea] returned an IC50 under setting [1] below 10 nM.

Take `Nc1ncnn2c(CN3CCOCC3)cc(-c3ccc(NC(=O)Nc4cc(C(F)(F)F)ccc4Cl)cc3)c12` [Example 52, N-{4-[4-amino-7-(morpholin-4-ylmethyl)pyrrolo[2,1-f][1,2,4]triazin-5-yl]phenyl}-N′-[2-chloro-5-(trifluoromethyl)phenyl]urea]: under setting [1], the IC50 is below 10 nM.

`CC(C)(C)c1ccnc(NC(=O)Nc2ccc(-c3cc(CN4CCOCC4)n4ncnc(N)c34)cc2)c1` [Example 53, N-{4-[4-amino-7-(morpholin-4-ylmethyl)pyrrolo[2,1-f][1,2,4]triazin-5-yl]phenyl}-N′-(4-tert-butylpyridin-2-yl)urea]: the half-inhibitory concentration (IC50) under setting [1] is below 10 nM.

For `Nc1ncnn2c(CN3CCOCC3)cc(-c3ccc(NC(=O)Nc4ccc(F)cn4)cc3)c12` [Example 55, N-{4-[4-amino-7-(morpholin-4-ylmethyl)pyrrolo[2,1-f][1,2,4]-triazin-5-yl]phenyl}-N′-(5-fluoropyridin-2-yl)urea], the IC50 was above 100 nM under setting [1] and below 1000 nM under setting [2].

Take `Cc1cccc(NC(=O)Nc2ccc(-c3cc(CN4CCOCC4)n4ncnc(N)c34)cc2)n1` [Example 57, N-{4-[4-amino-7-(morpholin-4-ylmethyl)pyrrolo[2,1-f][1,2,4]-triazin-5-yl]phenyl}-N′-(6-methylpyridin-2-yl)urea]: the IC50 under setting [1] was above 100 nM and the IC50 under setting [2] is below 1000 nM.

Compound `Nc1ncnn2c(CN3CCOCC3)cc(-c3ccc(NC(=O)Nc4cccc(C(F)(F)F)c4F)cc3)c12` [Example 58, N-{4-[4-amino-7-(morpholin-4-ylmethyl)pyrrolo[2,1-f][1,2,4]-triazin-5-yl]phenyl}-N′-[2-fluoro-3-(trifluoromethyl)phenyl]urea] registered an IC50 under setting [1] of 10 to 100 nM.

For `CC(=O)c1cccc(NC(=O)Nc2ccc(-c3cc(CN4CCOCC4)n4ncnc(N)c34)cc2)c1` [Example 59, N-(3-acetylphenyl)-N′-{4-[4-amino-7-(morpholin-4-ylmethyl)pyrrolo[2,1-f][1,2,4]triazin-5-yl]phenyl}urea], the IC50 under setting [1] was 10 to 100 nM.

For the compound `Nc1ncnn2c(CN3CCOCC3)cc(-c3ccc(NC(=O)Nc4ccc(Cl)cn4)cc3)c12` [Example 63, N-{4-[4-amino-7-(morpholin-4-ylmethyl)pyrrolo[2,1-f][1,2,4]triazin-5-yl]phenyl}-N′-(5-chloropyridin-2-yl)urea], the half-maximal inhibitory concentration (IC50) was above 100 nM under setting [1] and below 1000 nM under setting [2].

Under setting [1], `Nc1ncnn2c(CN3CCOCC3)cc(-c3ccc(NC(=O)Nc4cc(C(F)(F)F)ccc4Cl)c(F)c3)c12` [Example 65, N-4-[4-amino-7-(morpholin-4-ylmethyl)pyrrolo[2,1-f][1,2,4]triazin-5-yl]-2-fluorophenyl-N′-[2-chloro-5-(trifluoromethyl)phenyl]urea] displayed an IC50 below 10 nM.
